According to patent US20240279190A1, “COMPOUNDS FOR MODULATING PLATELET-TYPE 12-(S)-LIPOXYGENASE AND METHODS OF USE FOR SAME” (The Regents of The University of California, priority 2021, published 2024):

How the values were obtained:
[1] = molecular target: T1, 12-LOX mutant A417I/V418M/S594T (Homo sapiens, UniProt P18054, A417I/S594T/V418M); experiment: UV-Vis-based IC50 assay, A417I/V418M/S594T mutant; type: biochemical
T1 construct: 6xHis (N); made in house; pFastBac1 shuttle vector
T1 sequence (P18054 1-663 A417I/V418M/S594T): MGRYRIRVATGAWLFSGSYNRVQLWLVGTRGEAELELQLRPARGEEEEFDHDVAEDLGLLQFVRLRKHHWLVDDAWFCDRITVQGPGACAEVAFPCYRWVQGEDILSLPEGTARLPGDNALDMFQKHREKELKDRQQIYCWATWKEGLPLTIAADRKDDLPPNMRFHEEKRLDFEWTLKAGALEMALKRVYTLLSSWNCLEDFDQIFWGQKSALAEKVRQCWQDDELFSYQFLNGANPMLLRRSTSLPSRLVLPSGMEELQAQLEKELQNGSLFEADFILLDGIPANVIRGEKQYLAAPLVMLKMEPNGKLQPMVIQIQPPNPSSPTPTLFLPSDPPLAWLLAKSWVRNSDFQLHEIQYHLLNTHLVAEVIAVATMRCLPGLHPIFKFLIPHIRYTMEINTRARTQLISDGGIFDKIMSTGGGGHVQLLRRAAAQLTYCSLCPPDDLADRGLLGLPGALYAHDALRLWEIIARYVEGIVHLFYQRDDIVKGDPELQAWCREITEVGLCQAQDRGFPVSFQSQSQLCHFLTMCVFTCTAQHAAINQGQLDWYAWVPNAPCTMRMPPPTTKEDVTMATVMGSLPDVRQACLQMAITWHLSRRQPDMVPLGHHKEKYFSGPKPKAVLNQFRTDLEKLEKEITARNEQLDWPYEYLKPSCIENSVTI
Source text: Based on the ML355 binding mode predicted by the modeling, all residues within 5 Å of any atom of ML355 were selected for experimental mutagenesis. The selected residues were replaced with amino acids with either bulkier or smaller side chains in order to determine what specific interactions play a role in inhibitor binding. […] The numbering refers to the UniProt accession number P18054 sequence, with the N-terminal methionine assigned as amino acid number one. The primers for all mutants were designed using the online QuikChange Primer Design tool (http://www.genomics.agilent.com/primerDesignProgram.jsp) from Agilent Technologies (CA, USA). The mutations were introduced by using the QuikChange® II XL site-directed mutagenesis kit from Agilent, following the instructions in the protocol provided. […]
The wild type 12-LOX (wt-12-LOX) enzyme and its mutants were expressed as fusion proteins, with an N-terminal 6×His tag, and were affinity purified by nickel-iminodiacetic acid agarose using FPLC (Biorad).
The percent inhibition was determined by comparing the enzyme rates of the control (DMSO solvent) and the inhibitor sample by following the formation of the conjugated diene product at 234 nm (ε=25,000 M^−1cm^−1). […] The substrate concentration was quantitatively determined by allowing the enzymatic reaction to go to completion in the presence of soybean LOX-1. […]

human islets = experiment: Glucose stimulated insulin secretion (GSIS) of human islets treated with PIC; type: cell-based
Protocol: Human islets from nondiabetic donors were received from the Integrated Islet Distribution Program or Prodo Laboratories (Aliso Viejo, CA) (Table 1). Characteristics of islets and donors are summarized in the below table. Islets were incubated in CMRL-1066 medium supplemented with 10% fetal bovine serum and 1% Pen-Strept overnight at 37° C. in 5% CO2 for recovery from shipment. On the next day, islets were transferred to CMRL-1066 supplemented with 5% fetal bovine serum and 1% Pen-Strept. A portion of the islets were randomly selected and incubated with a mixture of human PICs, […] tumor necrosis factor α, […] interferon-γ, and […] IL-1β (all from BD Biosciences, San Jose, CA) in the presence or absence of 1 μmol/L compound LOX-12-001. Compound LOX-12-001 was added 30 minutes before the addition of pro-inflammatory cytokines (PIC).
Use of Krebs-Ringer buffer (KRB) for glucose-stimulated insulin secretion (GSIS) was previously published. For batch assays, islets treated with PIC in the presence or absence of compound LOX-12-001 (1 μM) for 24 hours were transferred to KRB without glucose and were incubated for 1 hour at 37° C. in 5% CO2 in the absence of PIC and compound LOX-12-001. Thereafter, 50 islet equivalents (IEQs) per well were transferred to six-well plates filled with 1 mL of KRB containing 3 mmol/L or 18 mmol/L of glucose and were incubated for 1 hour at 37° C. in 5% CO2. Each condition was performed in triplicate. After incubation, supernatant was collected for determination of insulin secretion by human insulin enzyme-linked immunosorbent assay (Mercodia, Winston-Salem, NC).
Data are presented as mean±standard error of the mean and were analyzed using Two-way Annova analysis of variance Sidak's multiple comparison test (Prism software, Irvine, CA) as indicated in each figure. P<0.05 was considered significant.

COc1cccc(CNc2ccc(S(=O)(=O)Nc3nc4c(ccc5ccccc54)s3)cc2)c1O [Compound LOX-12-001, 4-((2-hydroxy-3-methoxybenzyl)amino)-N-(naphtho[1,2-d]thiazol-2-yl)benzenesulfonamide]
IC50 [1]: > 20 µM | inhibition at 20 µM ([1]; 20 uM inhibitor, read-out: Percent inhibition at 20 uM inhibitor): 44% | insulin secretion (human islets; 3 mmol/L glucose, PIC plus 1 μM compound for 24 hrs): 140+/−3 mU/L | insulin secretion (human islets; 3 mmol/L glucose, compound only (1 μM), no PIC): 25+/−5 mU/L | insulin secretion (human islets; 18 mmol/L glucose, PIC plus 1 μM compound for 24 hrs): 352+/−10 mU/L | insulin secretion (human islets; 18 mmol/L glucose, compound only (1 μM), no PIC): 128+/−13 mU/L
